Reference: ChEMBL document CHEMBL1201862, “PubChem BioAssay data set” (2004)
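Grown in 96-well plates, cells were treated for 48 hours with each compound at five concentrations. Insufficient inhibition: endpoint recorded as highest concentration tested. GI50 marks 50% less growth.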 The source made the active and inactive calls. No stated cut-off is given here; in the data, active = GI50 up to about 1.1 µM and inactive = higher.

Legend:
Assay in all cases: NCI-60 cell line screen, 48 h
[1] = tested on: OVCAR-4
[2] = tested on: M14
[3] = tested on: OVCAR-5
[4] = tested on: NCI/ADR-RES
[5] = tested on: EKVX
[6] = tested on: Hs-578T
[7] = tested on: MDA-MB-435
[8] = tested on: SF-295
[9] = tested on: HCT-116
[10] = tested on: ACHN
[11] = tested on: NCI-H23
[12] = tested on: COLO 205
[13] = tested on: MOLT-4
[14] = tested on: SF-539
[15] = tested on: SW-620
[16] = tested on: 786-0
[17] = tested on: SF-268
[18] = tested on: KM12
[19] = tested on: SK-OV-3
[20] = tested on: TK-10
[21] = tested on: CCRF-CEM
[22] = tested on: SK-MEL-5
[23] = tested on: SNB-75
[24] = tested on: MDA-N
[25] = tested on: CAKI-1
[26] = tested on: U-251
[27] = tested on: HL-60
[28] = tested on: LOX IMVI
[29] = tested on: UACC-62
[30] = tested on: NCI-H460
[31] = tested on: SK-MEL-2
[32] = tested on: SN12C
[33] = tested on: IGROV-1
[34] = tested on: HT-29
[35] = tested on: SNB-19
[36] = tested on: PC-3
[37] = tested on: SK-MEL-28
[38] = tested on: SR
[39] = tested on: A549
[40] = tested on: UACC-257
[41] = tested on: RXF 393
[42] = tested on: Malme-3M
[43] = tested on: K562
[44] = tested on: OVCAR-8
[45] = tested on: HCT-15
[46] = tested on: OVCAR-3
[47] = tested on: MCF7
[48] = tested on: DU-145
[49] = tested on: HCC 2998
[50] = tested on: UO-31
[51] = tested on: RPMI-8226
[52] = tested on: HOP-62
[53] = tested on: T47D
[54] = tested on: NCI-H226
[55] = tested on: MDA-MB-231
[56] = tested on: NCI-H522
[57] = tested on: BT-549
[58] = tested on: A498
[59] = tested on: HOP-92

COc1ccc(-c2nc(N)c(C#N)c3c2CCSc2ccc(C)cc2-3)cc1OC
GI50 [1]: 16.7 µM (inactive) | GI50 [2]: 29.1 µM (inactive) | GI50 [3]: 47.2 µM (inactive) | GI50 [4]: 12.3 µM (inactive) | GI50 [5]: 17.9 µM (inactive) | GI50 [6]: 8.2 µM (inactive) | GI50 [7]: 4.61 µM (inactive) | GI50 [8]: 6.67 µM (inactive) | GI50 [9]: 10.8 µM (inactive) | GI50 [10]: 19.9 µM (inactive) | GI50 [11]: 8.04 µM (inactive) | GI50 [12]: 5.51 µM (inactive) | GI50 [13]: 3.49 µM (inactive) | GI50 [14]: 17.1 µM (inactive) | GI50 [15]: 22.1 µM (inactive) | GI50 [16]: 15 µM (inactive) | GI50 [17]: 17.2 µM (inactive) | GI50 [18]: 6.84 µM (inactive) | GI50 [19]: 10.9 µM (inactive) | GI50 [20]: 26.4 µM (inactive) | GI50 [21]: 4.12 µM (inactive) | GI50 [22]: 6.18 µM (inactive) | GI50 [23]: 10.7 µM (inactive) | GI50 [24]: 3.79 µM (inactive) | GI50 [25]: 19.6 µM (inactive) | GI50 [26]: 18.1 µM (inactive) | GI50 [27]: 2.89 µM (inactive) | GI50 [28]: 14.8 µM (inactive) | GI50 [29]: 10.9 µM (inactive) | GI50 [30]: 18.5 µM (inactive) | GI50 [31]: 25.4 µM (inactive) | GI50 [32]: 17.3 µM (inactive) | GI50 [33]: 23.1 µM (inactive) | GI50 [34]: 14.2 µM (inactive) | GI50 [35]: 31.3 µM (inactive) | GI50 [36]: 8.51 µM (inactive) | GI50 [37]: 39.7 µM (inactive) | GI50 [38]: 2.6 µM (inactive) | GI50 [39]: 12.3 µM (inactive) | GI50 [40]: 13.8 µM (inactive) | GI50 [41]: 13.7 µM (inactive) | GI50 [42]: 20.5 µM (inactive) | GI50 [43]: 1.24 µM (inactive) | GI50 [44]: 22.4 µM (inactive) | GI50 [45]: 9.4 µM | GI50 [46]: 20.7 µM (inactive) | GI50 [47]: 12.1 µM (inactive) | GI50 [48]: 14.8 µM (inactive) | GI50 [49]: 16.3 µM (inactive) | GI50 [50]: 4.16 µM (inactive) | GI50 [51]: 0.594 µM (active) | GI50 [52]: 42.8 µM (inactive) | GI50 [53]: 4.17 µM (inactive) | GI50 [54]: 14.8 µM (inactive) | GI50 [55]: 8.22 µM (inactive) | GI50 [56]: 5.89 µM (inactive) | GI50 [57]: 8.59 µM (inactive) | GI50 [58]: 22.5 µM (inactive) | GI50 [59]: 10.1 µM (inactive)

COc1cccc(N2C(=O)C3CC(CC(C)(C)C)c4c([nH]c5ccccc45)C3C2=O)c1 (stereo not given)
GI50 [1]: 2.62 µM (inactive) | GI50 [2]: 5.82 µM (inactive) | GI50 [3]: > 10 µM (inactive) | GI50 [4]: > 10 µM (inactive) | GI50 [5]: > 10 µM (inactive) | GI50 [6]: 3.5 µM (inactive) | GI50 [7]: > 10 µM (inactive) | GI50 [8]: > 10 µM (inactive) | GI50 [9]: 4.93 µM (inactive) | GI50 [10]: > 10 µM (inactive) | GI50 [11]: > 10 µM (inactive) | GI50 [12]: > 10 µM (inactive) | GI50 [13]: > 10 µM (inactive) | GI50 [14]: 2.56 µM (inactive) | GI50 [15]: > 10 µM (inactive) | GI50 [16]: 3.8 µM (inactive) | GI50 [17]: > 10 µM (inactive) | GI50 [18]: > 10 µM (inactive) | GI50 [19]: > 10 µM (inactive) | GI50 [20]: > 10 µM (inactive) | GI50 [21]: > 10 µM (inactive) | GI50 [22]: > 10 µM (inactive) | GI50 [23]: 1.84 µM (inactive) | GI50 [24]: > 10 µM (inactive) | GI50 [25]: > 10 µM (inactive) | GI50 [26]: 7.91 µM (inactive) | GI50 [27]: > 10 µM (inactive) | GI50 [28]: 9.44 µM (inactive) | GI50 [29]: > 10 µM (inactive) | GI50 [30]: 6.47 µM (inactive) | GI50 [31]: > 10 µM (inactive) | GI50 [32]: 6 µM (inactive) | GI50 [33]: > 10 µM (inactive) | GI50 [34]: > 10 µM (inactive) | GI50 [35]: > 10 µM (inactive) | GI50 [36]: > 10 µM (inactive) | GI50 [37]: > 10 µM (inactive) | GI50 [38]: 1.48 µM (inactive) | GI50 [39]: > 10 µM (inactive) | GI50 [40]: > 10 µM (inactive) | GI50 [41]: > 10 µM (inactive) | GI50 [42]: 5.9 µM (inactive) | GI50 [43]: > 10 µM (inactive) | GI50 [44]: 3.56 µM (inactive) | GI50 [45]: > 10 µM | GI50 [46]: > 10 µM (inactive) | GI50 [47]: 8.55 µM (inactive) | GI50 [48]: > 10 µM (inactive) | GI50 [49]: > 10 µM (inactive) | GI50 [51]: > 10 µM (inactive) | GI50 [52]: 9.16 µM (inactive) | GI50 [53]: > 10 µM (inactive) | GI50 [54]: 2.77 µM (inactive) | GI50 [55]: 4.92 µM (inactive) | GI50 [56]: > 10 µM (inactive) | GI50 [57]: 9.51 µM (inactive) | GI50 [58]: > 10 µM (inactive) | GI50 [59]: > 10 µM (inactive)

CCC(N)(C(=O)O)C(C)C (stereo not given)
GI50 [1]: > 100 µM (inactive) | GI50 [2]: > 100 µM (inactive) | GI50 [3]: > 100 µM (inactive) | GI50 [4]: > 100 µM (inactive) | GI50 [5]: > 100 µM (inactive) | GI50 [6]: > 100 µM (inactive) | GI50 [7]: > 100 µM (inactive) | GI50 [8]: > 100 µM (inactive) | GI50 [9]: > 100 µM (inactive) | GI50 [10]: > 100 µM (inactive) | GI50 [11]: > 100 µM (inactive) | GI50 [12]: > 100 µM (inactive) | GI50 [14]: > 100 µM (inactive) | GI50 [15]: > 100 µM (inactive) | GI50 [16]: > 100 µM (inactive) | GI50 [17]: > 100 µM (inactive) | GI50 [18]: > 100 µM (inactive) | GI50 [19]: > 100 µM (inactive) | GI50 [20]: > 100 µM (inactive) | GI50 [21]: > 100 µM (inactive) | GI50 [22]: > 100 µM (inactive) | GI50 [23]: > 100 µM (inactive) | GI50 [24]: > 100 µM (inactive) | GI50 [25]: > 100 µM (inactive) | GI50 [26]: > 100 µM (inactive) | GI50 [27]: > 100 µM (inactive) | GI50 [28]: > 100 µM (inactive) | GI50 [29]: > 100 µM (inactive) | GI50 [30]: > 100 µM (inactive) | GI50 [31]: > 100 µM (inactive) | GI50 [32]: > 100 µM (inactive) | GI50 [33]: > 100 µM (inactive) | GI50 [34]: > 100 µM (inactive) | GI50 [35]: > 100 µM (inactive) | GI50 [36]: > 100 µM (inactive) | GI50 [37]: > 100 µM (inactive) | GI50 [38]: > 100 µM (inactive) | GI50 [39]: > 100 µM (inactive) | GI50 [40]: > 100 µM (inactive) | GI50 [41]: > 100 µM (inactive) | GI50 [42]: > 100 µM (inactive) | GI50 [43]: > 100 µM (inactive) | GI50 [44]: > 100 µM (inactive) | GI50 [45]: > 100 µM | GI50 [46]: > 100 µM (inactive) | GI50 [47]: > 100 µM (inactive) | GI50 [48]: > 100 µM (inactive) | GI50 [49]: > 100 µM (inactive) | GI50 [50]: > 100 µM (inactive) | GI50 [51]: > 100 µM (inactive) | GI50 [52]: > 100 µM (inactive) | GI50 [53]: > 100 µM (inactive) | GI50 [54]: > 100 µM (inactive) | GI50 [55]: > 100 µM (inactive) | GI50 [56]: > 100 µM (inactive) | GI50 [57]: > 100 µM (inactive) | GI50 [58]: > 100 µM (inactive) | GI50 [59]: 34.8 µM (inactive)
